Measured values from patent US20110105509A1 (Wyeth, LLC, priority 2009, published 2011).

Molecular target: T1, CRTH2 (Homo sapiens, UniProt Q9Y5Y4)
T1 construct: expressed in transfected cells; host or cells: CHO cells
T1 sequence (Q9Y5Y4 1-395): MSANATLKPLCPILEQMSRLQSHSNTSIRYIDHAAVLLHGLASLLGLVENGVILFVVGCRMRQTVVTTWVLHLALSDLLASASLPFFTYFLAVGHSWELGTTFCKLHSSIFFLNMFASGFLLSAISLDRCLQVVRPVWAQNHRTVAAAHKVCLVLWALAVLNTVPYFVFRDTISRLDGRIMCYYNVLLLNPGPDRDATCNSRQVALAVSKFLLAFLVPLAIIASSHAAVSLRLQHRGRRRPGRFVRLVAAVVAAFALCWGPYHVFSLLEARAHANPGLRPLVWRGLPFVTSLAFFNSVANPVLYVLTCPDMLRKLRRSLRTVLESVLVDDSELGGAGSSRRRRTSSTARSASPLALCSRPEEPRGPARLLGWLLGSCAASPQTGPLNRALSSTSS
Assay: FRET based competitive immunoassay (cAMP) in CRTH2 expressing CHO cells
Format: cell-based
Conditions: CRTH2 expressing CHO cells incubated with forskolin and PGD2; Eu3+ cryptate-labeled anti-cAMP and d2-labeled cAMP
Experimental: FRET Assay: To evaluate potency compounds were tested in a FRET based competitive immunoassay in which CRTH2 expressing CHO cells were incubated in the presence of forskolin and PGD2 along with Eu3+ cryptate-labeled anti-cAMP and d2-labeled cAMP.

Row | SMILES | IC50 [nM]
1 | COc1ccc2c(c1)c(-c1nn(Cc3ccccc3)c(=O)c3ccccc13)c(C)n2CC(=O)O [Example 16, 2-(3-(3-Benzyl-4-oxo-3,4-dihydrophthalazin-1-yl)-5-methoxy-2-methyl-1H-indol-1-yl)acetic acid] | 31
2 | Cc1c(Cc2ccc(=O)n(Cc3ccccc3F)n2)c2cc(F)ccc2n1CC(=O)O [Example 340, (3-{[1-(2-fluorobenzyl)-6-oxo-1,6-dihydropyridazin-3-yl]methyl}-5-fluoro-2-methyl-1H-indol-1-yl)acetic acid] | 3
3 | Cc1c(Cc2ccc(=O)n(Cc3cccc(C(C)(C)O)c3)n2)c2cc(F)ccc2n1CC(=O)O [Example 240, 2-(5-fluoro-3-((1-(3-(2-hydroxypropan-2-yl)benzyl)-6-oxo-1,6-dihydropyridazin-3-yl)methyl)-2-methyl-1H-indol-1-yl)acetic acid] | 4
4 | Cc1c(-c2nn(CC3CC3)c(=O)c3ccccc23)c2ccccc2n1CC(=O)O [Example 176, 2-(3-(3-(cyclopropylmethyl)-4-oxo-3,4-dihydrophthalazin-1-yl)-2-methyl-1H-indol-1-yl)acetic acid] | 123
5 | Cc1ccc2c(c1)c(-c1ccc(=O)n(Cc3ccccc3)n1)c(C)n2CC(=O)O [Example 191, 2-(3-(1-benzyl-6-oxo-1,6-dihydropyridazin-3-yl)-2,5-dimethyl-1H-indol-1-yl)acetic acid] | 64
6 | Cc1c(-c2ccc(=O)n(C3CCCC3)c2)c2ccccc2n1CC(=O)O [Example 288, 2-(3-(1-cyclopentyl-6-oxo-1,6-dihydropyridin-3-yl)-2-methyl-1H-indol-1-yl)-acetic acid] | 117
7 | Cc1c(Cc2ccc(=O)n(Cc3cc(F)ccc3F)n2)c2cc(F)ccc2n1CC(=O)O [Example 336, (3-{[1-(2,5-difluorobenzyl)-6-oxo-1,6-dihydropyridazin-3-yl]methyl}-5-fluoro-2-methyl-1H-indol-1-yl)acetic acid] | 5
8 | Cc1nnc(Cn2nc(-c3c(C)n(CC(=O)O)c4ccc(F)cc34)ccc2=O)[nH]1 [Example 260b, 2-(5-fluoro-2-methyl-3-(1-((5-methyl-4H-1,2,4-triazol-3-yl)methyl)-6-oxo-1,6-dihydro-pyridazin-3-yl)-1H-indol-1-yl)acetic acid] | 1650
9 | Cc1c(Cc2ccc(=O)n(Cc3ccc(F)cc3F)c2)c2ccccc2n1CC(=O)O [Example 21, 2-(3-((1-(2,4-Difluorobenzyl)-6-oxo-1,6-dihydropyridin-3-yl)methyl)-2-methyl-1H-indol-1-yl)acetic acid] | 18
10 | Cc1c(-c2ccc(=O)n(Cc3ccccc3)n2)c2cc(F)ccc2n1CC(=O)O [Example 324, 2-(3-(1-benzyl-6-oxo-1,6-dihydropyridazin-3-yl)-5-fluoro-2-methyl-1H-indol-1-yl)-acetic acid] | 6
11 | Cc1c(-c2nn(Cc3c(F)cccc3F)c(=O)c3ccccc23)c2cc(F)ccc2n1CC(=O)O [Example 116, 2-(3-(3-(2,6-difluorobenzyl)-4-oxo-3,4-dihydrophthalazin-1-yl)-5-fluoro-2-methyl-1H-indol-1-yl)acetic acid] | 7
12 | Cc1c(Cc2ccc(=O)n(Cc3ccccc3F)c2)c2cc(F)ccc2n1CC(=O)O [Example 32, 2-(5-Fluoro-3-((1-(2-fluorobenzyl)-6-oxo-1,6-dihydropyridin-3-yl)methyl)-2-methyl-1H-indol-1-yl)acetic acid] | 8
13 | Cc1ccc2c(c1)c(-c1nn(Cc3ccccc3)c(=O)c3ccccc13)c(C)n2CC(=O)O [Example 192, 2-(3-(3-Benzyl-4-oxo-3,4-dihydrophthalazin-1-yl)-2,5-dimethyl-1H-indol-1-yl)acetic acid] | 4
14 | Cc1c(-c2nn(Cc3cccc(C(F)(F)F)c3)c(=O)c3ccccc23)c2cc(Cl)ccc2n1CC(=O)O [Example 200, 2-(5-Chloro-2-methyl-3-(4-oxo-3-(3-(trifluoromethyl)benzyl)-3,4-dihydro-phthalazin-1-yl)-1H-indol-1-yl)acetic acid] | 45
15 | Cc1c(-c2ccc(=O)n(CC(F)(F)F)c2)c2ccccc2n1CC(=O)O [Example 279, 2-(2-methyl-3-(6-oxo-1-(2,2,2-trifluoroethyl)-1,6-dihydropyridin-3-yl)-1H-indol-1-yl)acetic acid] | 715
16 | Cc1c(-c2nn(C3CC3)c(=O)c3ccccc23)c2ccccc2n1CC(=O)O [Example 178, 2-(3-(3-cyclopropyl-4-oxo-3,4-dihydrophthalazin-1-yl)-2-methyl-1H-indol-1-yl)-acetic acid] | 215
17 | Cc1c(-c2ccc(=O)n(Cc3ccccc3F)c2)c2cc(Cl)ccc2n1CC(=O)O [Example 290, 2-(5-chloro-3-(1-(2-fluorobenzyl)-6-oxo-1,6-dihydropyridin-3-yl)-2-methyl-1H-indol-1-yl)acetic acid] | 7

Row | SMILES | IC50 [nM]
18 | Cc1c(-c2nn(Cc3ccccc3)c(=O)c3ccccc23)c2ccccc2n1CCO [Example 52, 2-Benzyl-4-(1-(2-hydroxyethyl)-2-methyl-1H-indol-3-yl)phthalazin-1(2H)-one] | > 2000
19 | Cc1c(-c2ccc(=O)n(CC(F)(F)F)c2)c2cc(Cl)ccc2n1CC(=O)O [Example 281, 2-(5-chloro-2-methyl-3-(6-oxo-1-(2,2,2-trifluoroethyl)-1,6-dihydropyridin-3-yl)-1H-indol-1-yl)acetic acid] | 240
20 | Cc1c(Cc2ccc(=O)n(Cc3ccc(C(O)(C(F)(F)F)C(F)(F)F)cc3)n2)c2cc(F)ccc2n1CC(=O)O [Example 239, 2-(5-fluoro-3-((1-(4-(1,1,1,3,3,3-hexafluoro-2-hydroxypropan-2-yl)benzyl)-6-oxo-1,6-dihydropyridazin-3-yl)methyl)-2-methyl-1H-indol-1-yl)acetic acid] | 7
21 | Cc1c(-c2nn(Cc3cccnc3)c(=O)c3ccccc23)c2cc(F)ccc2n1CC(=O)O [Example 135, 2-(5-fluoro-2-methyl-3-(4-oxo-3-(pyridin-3-ylmethyl)-3,4-dihydrophthalazin-1-yl)-1H-indol-1-yl)acetic acid] | 5
22 | CCn1nc(-c2c(C)n(CC(=O)O)c3ccc(F)cc23)ccc1=O [Example 160, 2-(3-(1-ethyl-6-oxo-1,6-dihydropyridazin-3-yl)-5-fluoro-2-methyl-1H-indol-1-yl)acetic acid] | 375
23 | Cc1c(Cc2ccc(=O)n(Cc3cccc(F)c3)c2)c2cc(Cl)ccc2n1CC(=O)O [Example 45, 2-(5-Chloro-3-((1-(3-fluorobenzyl)-6-oxo-1,6-dihydropyridin-3-yl)methyl)-2-methyl-1H-indol-1-yl)acetic acid] | 5
24 | Cc1c(CC2=NN(Cc3ccccc3)C(=O)CC2)c2cc(F)ccc2n1CC(=O)O [Example 78, 2-(3-((1-Benzyl-6-oxo-1,4,5,6-tetrahydropyridazin-3-yl)methyl)-5-fluoro-2-methyl-1H-indol-1-yl)acetic acid] | 2
25 | Cc1c(-c2cn(CC(F)(F)F)c(=O)c3c2CCCC3)c2cc(F)ccc2n1CC(=O)O [Example 90, 2-(5-fluoro-2-methyl-3-(1-oxo-2-(2,2,2-trifluoroethyl)-1,2,5,6,7,8-hexahydro-isoquinolin-4-yl)-1H-indol-1-yl)acetic acid] | > 1000
26 | Cc1c(-c2nn(Cc3ccccc3)c(=O)c3ccccc23)c2cc(Cl)cc(F)c2n1CC(=O)O [Example 11, 2-(3-(3-Benzyl-4-oxo-3,4-dihydrophthalazin-1-yl)-5-chloro-7-fluoro-2-methyl-1H-indol-1-yl)acetic acid] | 39
27 | Cc1c(Cc2nn(Cc3ccccc3)c(=O)c3ccccc23)c2cc(Cl)ccc2n1CC(=O)O [Example 84, 2-(3-((3-Benzyl-4-oxo-3,4-dihydrophthalazin-1-yl)methyl)-5-chloro-2-methyl-1H-indol-1-yl)acetic acid] | 28
28 | Cc1c(-c2ccc(=O)n(Cc3cccc(F)c3C(F)(F)F)n2)c2cc(Cl)ccc2n1CC(=O)O [Example 143, 2-(5-chloro-3-(1-(3-fluoro-2-(trifluoromethyl)benzyl)-6-oxo-1,6-dihydro-pyridazin-3-yl)-2-methyl-1H-indol-1-yl)acetic acid] | 55
29 | Cc1c(-c2cn(CC(F)(F)F)c(=O)c3ccccc23)c2cc(F)ccc2n1CC(=O)O [Example 250, 2-(5-fluoro-2-methyl-3-(1-oxo-2-(2,2,2-trifluoroethyl)-1,2-dihydroiso-quinolin-4-yl)-1H-indol-1-yl)acetic acid] | 4
30 | Cc1c(-c2ccc(=O)n(Cc3ccccc3)n2)c2cc(F)ccc2n1C(=O)c1cccnc1 [Example 262b, 2-benzyl-6-(5-fluoro-2-methyl-1-nicotinoyl-1H-indol-3-yl)pyridazin-3(2H)-one] | > 10000
31 | Cc1c(Cc2ccc(=O)n(C(C)C)c2)c2cc(F)ccc2n1CC(=O)O [Example 27, 2-(5-fluoro-3-((1-isopropyl-6-oxo-1,6-dihydropyridin-3-yl)methyl)-2-methyl-1H-indol-1-yl)acetic acid] | 137
32 | Cc1cc(Cn2nc(-c3c(C)n(CC(=O)O)c4ccc(F)cc34)ccc2=O)c2ccccc2n1 [Example 158, 2-(5-fluoro-2-methyl-3-(1-((2-methylquinolin-4-yl)methyl)-6-oxo-1,6-dihydro-pyridazin-3-yl)-1H-indol-1-yl)acetic acid] | 73
33 | Cc1c(-c2cn(CC(C)(C)O)c(=O)c3ccccc23)c2cc(F)ccc2n1CC(=O)O [Example 254, 2-(5-fluoro-3-(2-(2-hydroxy-2-methylpropyl)-1-oxo-1,2-dihydroisoquinolin-4-yl)-2-methyl-1H-indol-1-yl)acetic acid] | 15
